Test results reported in paper PMC7531004, “Discovery of gramicidin A analogues with altered activities by multidimensional screening of a one-bead-one-compound library” (Nature Communications, 2020).
Where a SMILES comes first, the peptide text is derived from it. [ ]: non-standard residue; d: D form. The star is where a group is joined. NHCH2CH2OH = OCCN*; For = O=C*

Columns and labels:
[1] = H+/Na+ transport assay of bead-derived peptides (one-point); type: biochemical; set-up: key: relative activity; mean of two control wells = 1.00; settings: bead-derived peptide solution, EYPC/EYPG LUVs;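 also: relative to parent gramicidin A activity set to 1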
Method in brief: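 Values are normalized fluorescence, with Triton X-100 defining 100% and untreated LUVs 0%, and the two control wells averaging 1.00. Vesicles carried 1.0 mM pyranine and included egg yolk phosphatidylglycerol. Peptides were incubated with them 30 min at room temperature.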

[2] = test system: Streptococcus pyogenes SSI-9; test: Antibacterial activity assay of bead-derived peptides (three concentrations); type: cell-based; set-up: key: +++: inhibition by the 640-fold diluted peptide solution; ++: inhibition by the 160-fold diluted solution; +: inhibition by the 40-fold diluted solution; -: no inhibition; settings: S. pyogenes, bead-derived peptide solution, three concentrations
Method in brief: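 Library peptide stock applied undiluted, 4-fold and 16-fold diluted in DMSO to S. pyogenes SSI-9 (2 × 10^5 CFU) in cation-adjusted Mueller Hinton broth with 5% laked horse blood. After 18 h at 37 °C, growth judged by visible cell precipitation.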

[3] = test system: P388 mouse leukemia cells; settings: 92 h
Method in brief: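 P388 cells at 1 × 10^4 cells/mL (final) were exposed to library peptides (stocks diluted 250-fold in RPMI1640/10% FBS) for 92 h at 37 °C, 5% CO2. Viable cells were counted by WST-1/1-methoxy PMS (4 h), absorbance 415 nm, and expressed as cell viability (%).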

Row | SMILES | H+/Na+ transport activity normalized against the value of 1 (1.00) [1] | antibacterial activity [2] | cell viability/% [3]
1 | CC(C)C[C@@H](NC(=O)[C@H](C)NC(=O)[C@H](NC(=O)[C@H](C)NC(=O)CNC(=O)[C@@H](NC=O)C(C)C)C(C)C)C(=O)N[C@H](C(=O)N[C@@H](C(=O)N[C@@H](Cc1c[nH]c2ccccc12)C(=O)N[C@H](CC(C)C)C(=O)N[C@@H](Cc1c[nH]c2ccccc12)C(=O)N[C@@H](C(=O)N[C@@H](Cc1c[nH]c2ccccc12)C(=O)N[C@H](CC(C)C)C(=O)N[C@@H](Cc1c[nH]c2ccccc12)C(=O)NCCO)C(C)C)C(C)C)C(C)C [compound 660] (For-VGA[dV]A[dL]V[dV]W[dL]W[dV]W[dL]W-NHCH2CH2OH) | 1.06 | ++ | 15.6%
2 | CC(C)C[C@@H](NC(=O)[C@H](C)NC(=O)CNC(=O)[C@@H](NC=O)C(C)C)C(=O)N[C@@H](C)C(=O)N[C@H](CC(C)C)C(=O)N[C@H](C(=O)N[C@H](CC(C)C)C(=O)N[C@@H](Cc1c[nH]c2ccccc12)C(=O)N[C@H](CC(C)C)C(=O)N[C@@H](Cc1c[nH]c2ccccc12)C(=O)N[C@@H](C(=O)N[C@@H](Cc1c[nH]c2ccccc12)C(=O)N[C@@H](C(=O)N[C@@H](Cc1c[nH]c2ccccc12)C(=O)NCCO)C(C)C)[C@H](C)O)C(C)C [compound 3143] (For-VGA[dL]A[dL]V[dL]W[dL]W[dT]W[dV]W-NHCH2CH2OH) | 1.04 | + | 99.9%
3 | CNC(=O)C[C@@H](NC(=O)[C@@H](NC(=O)[C@@H](CC(C)C)NC(=O)[C@H](C)NC(=O)[C@H](NC(=O)[C@H](C)NC(=O)CNC(=O)[C@@H](NC=O)C(C)C)C(C)C)C(C)C)C(=O)N[C@@H](Cc1c[nH]c2ccccc12)C(=O)N[C@H](CC(C)C)C(=O)N[C@@H](Cc1c[nH]c2ccccc12)C(=O)N[C@@H](C(=O)N[C@@H](Cc1c[nH]c2ccccc12)C(=O)N[C@H](CC(C)C)C(=O)N[C@@H](Cc1c[nH]c2ccccc12)C(=O)NCCO)C(C)C [compound 12687] (For-VGA[dV]A[dL]V[dD](NHMe)W[dL]W[dV]W[dL]W-NHCH2CH2OH) | 1.29 | - | 100.0%
4 | CC(C)C[C@@H](NC(=O)[C@H](C)NC(=O)CNC(=O)[C@@H](NC=O)C(C)C)C(=O)N[C@@H](C)C(=O)N[C@H](CC(C)C)C(=O)N[C@H](C(=O)N[C@H](CC(C)C)C(=O)N[C@@H](Cc1c[nH]c2ccccc12)C(=O)N[C@@H](C(=O)N[C@@H](Cc1c[nH]c2ccccc12)C(=O)N[C@H](CC(C)C)C(=O)N[C@@H](Cc1c[nH]c2ccccc12)C(=O)N[C@@H](C(=O)N[C@@H](Cc1c[nH]c2ccccc12)C(=O)NCCO)C(C)C)[C@H](C)O)C(C)C [compound 7480] (For-VGA[dL]A[dL]V[dL]W[dT]W[dL]W[dV]W-NHCH2CH2OH) | 1.01 | - | 100.0%
5 | CC(C)C[C@@H](NC(=O)[C@H](C)NC(=O)CNC(=O)[C@@H](NC=O)C(C)C)C(=O)N[C@@H](C)C(=O)N[C@H](CC(C)C)C(=O)N[C@H](C(=O)N[C@H](CC(C)C)C(=O)N[C@@H](Cc1c[nH]c2ccccc12)C(=O)N[C@H](CC(C)C)C(=O)N[C@@H](Cc1c[nH]c2ccccc12)C(=O)N[C@H](CC(C)C)C(=O)N[C@@H](Cc1c[nH]c2ccccc12)C(=O)N[C@@H](C(=O)N[C@@H](Cc1c[nH]c2ccccc12)C(=O)NCCO)C(C)C)C(C)C [compound 8635] (For-VGA[dL]A[dL]V[dL]W[dL]W[dL]W[dV]W-NHCH2CH2OH) | 1.05 | + | 6.4%
6 | CC(C)C[C@@H](NC(=O)[C@H](C)NC(=O)CNC(=O)[C@@H](NC=O)C(C)C)C(=O)N[C@@H](C)C(=O)N[C@@H](C(=O)N[C@H](C(=O)N[C@H](CC(C)C)C(=O)N[C@@H](Cc1c[nH]c2ccccc12)C(=O)N[C@@H](C(=O)N[C@@H](Cc1c[nH]c2ccccc12)C(=O)N[C@H](CC(C)C)C(=O)N[C@@H](Cc1c[nH]c2ccccc12)C(=O)N[C@@H](C(=O)N[C@@H](Cc1c[nH]c2ccccc12)C(=O)NCCO)[C@H](C)O)C(C)C)C(C)C)C(C)C [compound 8906] (For-VGA[dL]A[dV]V[dL]W[dV]W[dL]W[dT]W-NHCH2CH2OH) | 1.08 | + | 79.1%
7 | CC(C)C[C@@H](NC(=O)[C@H](C)NC(=O)[C@H](NC(=O)[C@H](C)NC(=O)CNC(=O)[C@@H](NC=O)C(C)C)C(C)C)C(=O)N[C@H](C(=O)N[C@@H](C(=O)N[C@@H](Cc1c[nH]c2ccccc12)C(=O)N[C@@H](C(=O)N[C@@H](Cc1c[nH]c2ccccc12)C(=O)N[C@H](CC(C)C)C(=O)N[C@@H](Cc1c[nH]c2ccccc12)C(=O)N[C@H](CC(C)C)C(=O)N[C@@H](Cc1c[nH]c2ccccc12)C(=O)NCCO)C(C)C)[C@H](C)O)C(C)C [compound 10367] (For-VGA[dV]A[dL]V[dT]W[dV]W[dL]W[dL]W-NHCH2CH2OH) | 1.00 | - | 100.0%
8 | CC(C)C[C@@H](NC(=O)[C@H](C)NC(=O)CNC(=O)[C@@H](NC=O)C(C)C)C(=O)N[C@@H](C)C(=O)N[C@H](CC(C)C)C(=O)N[C@H](C(=O)N[C@@H](C(=O)N[C@@H](Cc1c[nH]c2ccccc12)C(=O)N[C@@H](C(=O)N[C@@H](Cc1c[nH]c2ccccc12)C(=O)N[C@H](CC(C)C)C(=O)N[C@@H](Cc1c[nH]c2ccccc12)C(=O)N[C@H](CC(C)C)C(=O)N[C@@H](Cc1c[nH]c2ccccc12)C(=O)NCCO)C(C)C)C(C)C)C(C)C [compound 8858] (For-VGA[dL]A[dL]V[dV]W[dV]W[dL]W[dL]W-NHCH2CH2OH) | 1.05 | + | 84.7%
9 | CC(C)C[C@@H](NC(=O)[C@H](C)NC(=O)CNC(=O)[C@@H](NC=O)C(C)C)C(=O)N[C@@H](C)C(=O)N[C@H](CC(C)C)C(=O)N[C@H](C(=O)N[C@H](CC(C)C)C(=O)N[C@@H](Cc1c[nH]c2ccccc12)C(=O)N[C@H](CC(C)C)C(=O)N[C@@H](Cc1c[nH]c2ccccc12)C(=O)N[C@@H](C(=O)N[C@@H](Cc1c[nH]c2ccccc12)C(=O)N[C@@H](C(=O)N[C@@H](Cc1c[nH]c2ccccc12)C(=O)NCCO)C(C)C)[C@H](C)O)C(C)C [compound 12989] (For-VGA[dL]A[dL]V[dL]W[dL]W[dT]W[dV]W-NHCH2CH2OH) | 1.16 | + | 100.0%
10 | CC(C)C[C@@H](NC(=O)[C@H](C)NC(=O)CNC(=O)[C@@H](NC=O)C(C)C)C(=O)N[C@@H](C)C(=O)N[C@H](CC(C)C)C(=O)N[C@H](C(=O)N[C@H](CC(C)C)C(=O)N[C@@H](Cc1c[nH]c2ccccc12)C(=O)N[C@@H](C(=O)N[C@@H](Cc1c[nH]c2ccccc12)C(=O)N[C@H](CC(C)C)C(=O)N[C@@H](Cc1c[nH]c2ccccc12)C(=O)N[C@@H](C(=O)N[C@@H](Cc1c[nH]c2ccccc12)C(=O)NCCO)C(C)C)C(C)C)C(C)C [compound 1751] (For-VGA[dL]A[dL]V[dL]W[dV]W[dL]W[dV]W-NHCH2CH2OH) | 1.05 | - | 0.0%
11 | CC(C)C[C@@H](NC(=O)[C@H](C)NC(=O)[C@H](NC(=O)[C@H](C)NC(=O)CNC(=O)[C@@H](NC=O)C(C)C)[C@H](C)O)C(=O)N[C@H](C(=O)N[C@H](CC(C)C)C(=O)N[C@@H](Cc1c[nH]c2ccccc12)C(=O)N[C@@H](C(=O)N[C@@H](Cc1c[nH]c2ccccc12)C(=O)N[C@H](CC(C)C)C(=O)N[C@@H](Cc1c[nH]c2ccccc12)C(=O)N[C@@H](C(=O)N[C@@H](Cc1c[nH]c2ccccc12)C(=O)NCCO)C(C)C)C(C)C)C(C)C [compound 6797] (For-VGA[dT]A[dL]V[dL]W[dV]W[dL]W[dV]W-NHCH2CH2OH) | 1.02 | - | 100.0%
12 | CC(C)C[C@@H](NC(=O)[C@H](C)NC(=O)CNC(=O)[C@@H](NC=O)C(C)C)C(=O)N[C@@H](C)C(=O)N[C@@H](C(=O)N[C@H](C(=O)N[C@H](CC(C)C)C(=O)N[C@@H](Cc1c[nH]c2ccccc12)C(=O)N[C@H](CC(C)C)C(=O)N[C@@H](Cc1c[nH]c2ccccc12)C(=O)N[C@@H](C(=O)N[C@@H](Cc1c[nH]c2ccccc12)C(=O)N[C@H](CC(C)C)C(=O)N[C@@H](Cc1c[nH]c2ccccc12)C(=O)NCCO)C(C)C)C(C)C)[C@H](C)O [compound 9676] (For-VGA[dL]A[dT]V[dL]W[dL]W[dV]W[dL]W-NHCH2CH2OH) | 1.05 | - | 100.0%
13 | CC(C)C[C@@H](NC(=O)[C@H](C)NC(=O)[C@H](NC(=O)[C@H](C)NC(=O)CNC(=O)[C@@H](NC=O)C(C)C)C(C)C)C(=O)N[C@H](C(=O)N[C@H](CC(C)C)C(=O)N[C@@H](Cc1c[nH]c2ccccc12)C(=O)N[C@H](CC(C)C)C(=O)N[C@@H](Cc1c[nH]c2ccccc12)C(=O)N[C@@H](C(=O)N[C@@H](Cc1c[nH]c2ccccc12)C(=O)N[C@@H](C(=O)N[C@@H](Cc1c[nH]c2ccccc12)C(=O)NCCO)C(C)C)C(C)C)C(C)C [compound 11280] (For-VGA[dV]A[dL]V[dL]W[dL]W[dV]W[dV]W-NHCH2CH2OH) | 1.04 | - | 9.9%
